This assay concerns SK-OV-3 cell line. Put plainly: 5-aza-2′-deoxycytidine treatment of SK-OV-3 cell line, gene expression changes by qRT-PCR. The class given is cell-based, human. The procedure:
Human ovarian cancer cell line SK-OV-3 was purchased from American type culture collection (ATCC no. HTB-77) and cultured in a McCoy's 5a medium containing 10% FBS (fetal bovine serum), 100 U/mL penicillin and 100 μg/mL streptomycin.
Total RNAs were extracted from SK-OV-3 cell line and the tumor tissues using an RNeasy mini kit (Qiagen), respectively. The extraction was performed according to manufacturer's instructions. The extracted total RNAs were quantified using a spectrophotometer, and RNA degradation was examined by electrophoresis in a 1% agarose gel.
For cDNA synthesis, Superscript II reverse transcriptase (Invitrogen) was used. 1 μg of total RNA and 50 ng of oligo dT were denatured at 70° C. for 10 minutes, and then mixed with a reaction mixture containing 4 μl of 5×RT buffer, 2 μl of […], 4 μl of 2.5 mM dNTP mixture, 200 units of Superscript II reverse transcriptase and 10 units of RNase inhibitor to prepare 20 μl of the resulting reaction mixture, which was reacted at 25° C. for 10 minutes, at 42° C. for 50 minutes, and at 95° C. for 5 minutes to synthesize cDNA. This cDNA was diluted at 1:4, and 2 μl thereof was used as a template for qRT-PCR. In qRT-PCR, 20 μl of reaction mixture containing 2 μl of cDNA, 10 μl of SYBR Premix EX Taq (Takara Bio), 0.4 μl of Rox reference dye (50×, Takara Bio), and 200 nM of primers of each gene was reacted at 95° C. for 30 seconds, and then repeated for 40 cycles (at 95° C. for 3 seconds, and at 60° C. for 30 seconds) using an ABI 7500fast sequence detection system (Applied Biosystems) for amplification. The PCR products were reacted at 95° C. for 15 seconds, at 60° C. for 1 minute, and at 95° C. for 15 seconds to examine their specificity. 18S rRNA expression was used as an internal control, and expressions of AGR2, CA9, GABRP, IFITM1 and MUC13 genes were normalization using the 18S rRNA expression level by a ΔΔCT method. The sequences of the primers used are as follows.
SK-OV-3 cell line was treated with a methylation inhibitor, 5-aza-2′-deoxycytidine (Sigma-Aldrich) at concentrations of 5 and 10 μM for 3 days, and then changes in AGR2, CA9, GABRP, IFITM1, and MUC13 gene expressions were measured by qRT-PCP.
For orientation: In qPCR the cycle at which signal appears reflects the starting amount.

[1] abbreviates: SK-OV-3 cells treated at 5 and 10 μM for 3 days, qRT-PCR normalized to 18S rRNA.

Results on one molecule are retold here after patent US20140243218A1, “COMPOSITION FOR DIAGNOSING OVARIAN CANCER METASTASIS USING CPG METHYLATION STATUS OF GENE PROMOTER AND USE THEREOF” (Ewha University - Industry Collaboration Foundation, priority 2013, published 2014).

Structures are written as SMILES.

On to `Nc1ncn([C@H]2C[C@H](O)[C@@H](CO)O2)c(=O)n1` [5-aza-2′-deoxycytidine], for which, under setting [1], the “increase in AGR2 gene expression” value is listed as “about 2 fold”, the “increase in CA9 gene expression” value is on record as “about 3.4 fold”, the “increase in GABRP gene expression” value is listed as “about 1.8 fold” and the “increase in IFITM1 gene expression” value is on record as “about 1.7 fold”. Also, under setting [1], the “increase in MUC13 gene expression” value stood at 17.8 fold. In addition, the “changes in expressions of the five genes (AGR2, CA9, GABRP, IFITM1, and MUC13)” value (SK-OV-3 cells, treatment for 3 days, result in words) is “increased expressions of the above genes were observed”.
